This passage reports melting point results from a melting point compilation (Tetko et al.; mined from patent text by program, amines drawn as free bases though some values may be those of a salt).

Some results are limits rather than exact numbers.

For orientation: melting point means the temperature of the solid-liquid transition. Molecule `Oc1cc(-c2c3ccccc3c(Br)c3sc4ccccc4c23)cc(Br)c1O` showed a melting point of 212 to 213 °C.
The molecule `C#CCn1nnc2cc3c(=O)n(C(C)Cn4ncnn4)nnc3cc2c1=O` (stereo unspecified) came in with a melting point of 209 to 211 °C.
With `COc1c(N2CC[C@H]([C@@H](C)NC(=O)OC(C)(C)C)C2)c(F)cc2c(=O)n(N)c(=O)n(C3CC3)c12`, the melting point was in the range of 96 to 98 °C.
Consider `COCCNC(=O)c1cccc(-c2cccc3oc(Cc4cccc(C(F)(F)F)c4)cc23)c1`, for which the melting point is 91 to 92 °C.
Turning to `COC(=O)C1C(=O)CCN(N2CCCCC2)C1=O` (stereo unspecified), the melting point lay in the range of 157 to 159 °C.
On to `Cn1c(CC(=O)O)ccc1C(=O)c1ccc(Br)cc1`, for which the melting point was determined as 188 °C.
The molecule `Cc1cc(C)c(-c2cn(C)c3nc(N(C)C)n(C)c(=O)c23)c(C)c1` displayed a melting point of 127 to 128 °C.
In turn, `CCC(O)c1ccc(-c2ccc(Cl)cc2)o1` (stereo unspecified) returned a melting point of 74 to 75 °C.
Turning to `O=Cc1c2ccccc2c(C=O)c2c1ccc1ccccc12`, the melting point lay within 197 to 198 °C.
On to `COc1cc2c3ccc(OC)c(OC)c3n(Cc3ccc(Br)cc3)c2cc1OC`, for which the melting point was in the range of 143 to 144 °C.
The molecule `C=C(COc1ccc(C(=O)CCC(=O)OC)cc1)COc1ccc(C(C)=O)c(O)c1CCC` showed a melting point of 89 to 90 °C.
For `CS(=O)(=O)C(C(=O)OCc1ccccc1)(C(=O)OCc1ccccc1)N1C(=O)C(NC(=O)Cc2ccccc2)C1CN=[N+]=[N-]` (stereo unspecified), the melting point is 114 to 115 °C.
`CC(C)(C)C(=O)OCc1nc2cc3c(cc2c(=O)[nH]1)CCC3` displayed a melting point of 185 to 190 °C.
With `c1ccc(OCCN2CCN(Cc3c[nH]c4ncccc34)CC2)cc1` the figure was 143 °C; with `CCc1nc2c(N)nc3cc(OCc4ccc(S(=O)(=O)NCCc5cc6ccccc6[nH]5)cc4)ccc3c2s1`, 100 to 101 °C.
The molecule `O=C(NC(=O)c1ccccc1Cl)Nc1ccc(-c2ccc(Cl)cc2)cn1` returned a melting point of 228 to 231 °C.
With `O=C1CCC(N2C(=O)c3cccc(CNC(=O)c4ccc(C(F)(F)F)c(F)c4)c3C2=O)C(=O)N1` (stereo unspecified) the figure was 165 to 167 °C.
Consider `Cn1nnnc1-c1ccccc1S(N)(=O)=O`, for which the melting point lay within 176 to 179 °C.
The value for `NCCOc1cc(F)cc2c1OCCC2` was 68 to 70 °C.
In turn, `O=C(CCS)N[C@@H](Cc1c[nH]cn1)C(=O)O` gave a melting point of 219 °C.
For `Cc1cccc(N2CCN(CCc3c(C)nc4ccccn4c3=O)CC2)c1`, the melting point lay within 95.5 to 96.5 °C.
The molecule `CCCc1nc2ccnn2cc1Cc1ccc(-c2ccccc2C#N)cc1` gave a melting point of 154 °C.
The value for `COC(=O)c1ccc(C(=O)N2Cc3cccn3Cc3ccccc32)cc1` was 186 to 188 °C; that for `COc1nc(Cl)cc2nccn12` was 115 to 118 °C; that for `CCc1cc(=O)n2c3c(cc(C(O)(C(F)(F)F)C(F)(F)F)cc13)CCC2` was 209 to 210 °C.
`Cc1cc(/C=C/C(=O)O)c(C)c([N+](=O)[O-])c1` came in with a melting point of 228 °C.
With `CCOc1c(C(=O)NCC(O)CN(CC)CC)n(-c2ccccc2)c2ccccc12` (stereo unspecified) the figure was 146 to 148 °C; with `OCCc1ccc2sccc2c1`, 56 to 57 °C; with `NC(=O)c1cnc2c(F)c(F)ccc2c1`, 250 °C.
As to `CC(=O)Nc1nc(C)c(S(=O)(=O)n2c(CCCC(=O)O)cc3cc(Cl)ccc32)s1`, the melting point is 231 to 233 °C.
In turn, `CCC(CC)c1ccc(Cl)c2nc3n(c12)CC(=O)N3c1cnc(N(C)C)cc1C` registered a melting point of 222 to 224 °C.
With `O=S(=O)(NCC(O)(Cn1cncn1)c1ccc(Cl)cc1Cl)c1ccc(C(F)(F)F)cc1` (stereo unspecified), the melting point lay in the range of 165 to 166 °C.
The value for `CN(c1cccc2cc(-c3nccs3)[nH]c12)S(=O)(=O)c1ccsc1C(C)(C)O` was 153 °C; that for `COc1cccc2c1CCCC2N1CCN(C)CC1` (stereo unspecified) was 69 to 71 °C.
The molecule `Cc1cc(C)nc(NC(=O)Cc2ccsc2)c1` showed a melting point of 123 to 124 °C.
The value for `CC(C)c1nn(-c2ccccn2)c(-c2ccc(F)cc2)c1/C=C/CO` was 106 to 109 °C; that for `Cc1nc(N2CCN(Cc3ccccc3)CC2)ncc1C(=O)O` was 192 °C; that for `O=C(O)c1cn(CCc2ccccc2)c2cc(C3CCCC3)nn2c1=O` was 198 to 200 °C.
For the molecule `COc1ccc2[nH]c(SCc3ncc(C)c(N4CCCCC4)c3Cl)nc2c1`, the melting point was 154 to 156 °C.
`Cc1cc(CCCCCOc2c(C)cc(-c3cn(C)nn3)cc2C)on1` displayed a melting point of 117 to 118 °C.
For the molecule `COc1cc2sc(CC(C)(Oc3ccc(C(C)C)cc3)C(=O)O)cc2c(Cl)c1OC` (stereo unspecified), the melting point fell in the range of 105 to 108 °C.
With `COc1ccc2c(n1)C1(CO2)C(=O)N(Cc2ccc(C(F)(F)F)o2)c2ccccc21` (stereo unspecified) the figure was 145 to 147 °C.
`N#Cc1ccc(C2NC(=O)Cc3ccccc32)cc1` (stereo unspecified) yielded a melting point of 165 to 168 °C.
As for `CC(=O)Oc1ccc2nc(C#N)nc(Cl)c2c1`, the melting point lay within 145 to 147 °C.
`O=C(NNC(=S)Nc1cccc(Br)c1)c1cccc([N+](=O)[O-])c1` yielded a melting point of 163 to 165 °C.
Turning to `CS(=O)(=O)CC(=O)N[C@H]1CC[C@H](CCN2CCC(c3cccc4c3CCO4)CC2)CC1`, the melting point is 211 °C.
The value for `Cc1nc(-c2ccc(N3CCOCC3)c([N+](=O)[O-])c2)sc1C(=O)O` was 218 to 220 °C; that for `CCCCNC(=O)C1(c2ccccc2)CCN(C)CC1` was 73 to 76.5 °C; that for `O=c1c2cnccc2n(-c2cccc(Cl)c2)c2ncccc12` was 222 to 224 °C.
As for `CC(C)(C)c1ccc(SC(CCl)S(=O)(=O)c2ccc(Cl)cc2)cc1` (stereo unspecified), the melting point was in the range of 52 to 68 °C.
In turn, `CS(=O)(=O)c1ccc(Oc2ccccc2CC(=O)O)cc1` came in with a melting point of 125 to 127 °C.
`O=C(NS(=O)(=O)c1ccccc1-c1ccccc1)Oc1ccccc1` came in with a melting point of 114 to 117 °C.
`COc1cc(OC)c2c(c1)OC(C(C)(C)C(N)=O)CC2=O` (stereo unspecified): the melting point was in the range of 161 to 163 °C.
For `Cc1cc2cc([N+](=O)[O-])ccc2o1`, the melting point lay in the range of 93 to 95 °C.
With `COc1cc(C=O)ccc1OC(C)c1nc(-c2ccccc2)oc1C` (stereo unspecified) the figure was 104 to 105 °C; with `CC(C)n1c(C=O)c(-c2ccc(F)cc2)c(-c2ccccc2)c1C(=O)NCc1ccc(F)cc1`, 171 to 172 °C; with `CCCN(CCC)C(=O)CN(C(=O)CN1C(=O)c2ccccc2C1=O)c1ccccc1`, 130 °C.
Molecule `CC(=O)OC1CSC(Oc2ccccc2-c2ccncc2)C(OC(C)=O)C1OC(C)=O` (stereo unspecified) yielded a melting point of 165 °C.
Turning to `ClCCCOc1cccc(OCCCCl)c1`, the melting point lay in the range of 135 to 136 °C.
In turn, `O=c1c2ccc(-c3nnn[nH]3)cc2[nH]c2ccc(-c3nnn[nH]3)cc12` showed a melting point greater than 350 °C.
With `CCOC1CC(n2cc(CC)c(=O)[nH]c2=O)OC1CNC(=O)C(C)Oc1ccc(Cl)cc1Cl` (mixture of isomers) the figure was 121 to 124 °C.
The value for `CON1CCC2(CC1)NC(=O)C(c1cc(C)ccc1C)=C2O` was 176 to 177 °C.
With `CC1(C)CN2C(=O)c3nc[nH]c3N(Cc3ccc(Cl)cc3)C2=N1` the figure was 222 to 223 °C; with `O=C(O)CNC(=O)NC(=O)C(CC1CCCC1)c1ccc(Cl)c(Cl)c1` (stereo unspecified), 204 to 207 °C.
Consider `COC1(c2ccc(F)cc2)CCC(=NO)CC1` (stereo unspecified), for which the melting point lay within 86 to 89 °C.
Take `CCCCCCCCCCCc1nnc2n1-c1ccccc1C(c1ccccc1)=NC2`: the melting point is 76 to 77 °C.
Take `CCOC(=O)C=Cc1c(OC)cncc1OC`: the melting point lay in the range of 100 to 101 °C.
`CC(=O)C(C#N)c1ccc2c(c1)Cc1cccnc1O2` (stereo unspecified): the melting point was 245 to 248 °C.
The value for `CCOC(=O)N1CCc2nc3ccccc3c(Cl)c2CC1` was 104 °C; that for `COC1=C(OC)C(=O)c2cc(NC(C)=O)ccc2C1=O` was 226 to 228 °C; that for `CN1CCN(c2nc(-c3ccc(Cl)cc3)c(CCC(=O)O)o2)CC1` was 157 to 160 °C.
`N#Cc1cc(C(F)(F)F)cc(Br)c1-c1nc(C(F)(F)C(F)(F)F)c(Br)c(=O)[nH]1` yielded a melting point of 156 °C.
With `C=C1C2CCC(=O)C23CCC(C3)C1(C)C` (stereo unspecified) the figure was 77 to 79 °C; with `Cc1cccc2[nH]c(Cl)nc12`, 138 to 140 °C.
As for `OC(Cc1ccc(Cl)cc1Cl)(Cn1cncn1)c1ccc(-c2ccccc2)cc1` (stereo unspecified), the melting point amounted to 124 °C.
In the case of `N#CCCCSc1cccc(NC(N)=NCC(F)(F)F)n1`, the melting point fell in the range of 89 to 91 °C.
Regarding `Cc1cc(Cl)nn2cnnc12`, the melting point fell in the range of 134 to 136 °C.
In turn, `CCOC(=O)c1cc(C(=O)c2ccc(C)cc2)n(C)c1C` came in with a melting point of 98 to 100 °C.
As to `Clc1cc(Cl)c2c(c1)COCO2`, the melting point fell in the range of 111 to 112 °C.
Take `COC(=O)c1cn(-c2ccc(F)cc2)c(-c2ccc(N(C)C)c(C)c2)cc1=O`: the melting point lay within 217 to 220 °C.
Molecule `COC(=O)[C@H](Cc1ccc(NC=O)cc1)NC(C)=O` returned a melting point of 126 °C.
For the molecule `CC(C)c1ccc(C2c3ccc(O)cc3OC2(C)C)cc1` (stereo unspecified), the melting point was 114 to 115 °C.
Molecule `O=C(Oc1ccccc1)N1CCC2(CC1)SC(c1ccccc1)c1ccc(F)cc12` (stereo unspecified) registered a melting point of 156 to 158 °C.
Take `O=C(Nc1cccc(-c2ccnc3c(C(=O)c4cccs4)cnn23)c1)c1ccccn1`: the melting point is 198 to 200 °C.
Take `CCOC(=O)Cn1ncc(-c2ccccc2)c1-c1ccc(N(C)C)cc1`: the melting point was 99 to 101 °C.
Molecule `CCC(Sc1ccc(CCC(=O)O)c(C)c1)c1ccc2nc(-c3ccc(C(F)(F)F)cc3)sc2c1` (stereo unspecified) gave a melting point of 105 to 108 °C.
With `CC(=O)OC(C)c1cc2c(s1)C(=O)c1c(C(C)OC(C)=O)csc1C2=O` (stereo unspecified) the figure was 180 to 182 °C; with `NC1=NC2(O)c3ccc(Cl)cc3CC2(F)S1` (stereo unspecified), 159 °C.
For the molecule `Cc1ccccc1CC(=O)c1cccc(I)c1`, the melting point was 115 to 117 °C.
With `CC(=O)Nc1nc(C(Cl)(Cl)Cl)ns1` the figure was 193 °C; with `CONC(c1ccccc1)c1cc(C(C)(C)C)c(O)c(C(C)(C)C)c1` (stereo unspecified), 135 to 137 °C.
